Assay results taken from patent US20110054033A1, “METHODS OF USING ABSCISIC ACID FOR AMELIORATING HYPERTENSION AND VASCULAR INFLAMMATION” (Virginia Tech Intellectual Properties, Inc., priority 2009, published 2011).

What was measured:
[1] = system: vascular cell adhesion molecule 1 (VCAM-1); assay: Aortic gene expression by real-time RT-PCR: VCAM-1; assay type: in vivo, mice; conditions: P=0.07
Procedure: (§1) FIG. 6 are graphs showing that ABA decreases immune cell infiltration in aortas of ApoE−/− mice and reduces pro-inflammatory gene expression. ApoE −/− mice were fed high fat diets created with or without 100 mg/kg diet racemic abscisic acid (ABA). (A) Infiltration of F4/80^+CD11b^+ macrophages and CD4^+ T-cells into the aorta were assessed with flow cytometry. Gene expression in the aorta of pro-inflammatory markers (B) vascular cell adhesion molecule 1 (VCAM-1), (C) monocyte chemoattractant protein 1 (MCP-1), (D) E-selectin, (F) peroxisome proliferator-activated receptor γ (PPAR γ), and (G) CD36 were measured as a ratio to the housekeeping gene β-actin. (H) MCP-1 protein concentrations (pg/mL) were measured by ELISA. Data were analyzed as a completely randomized design.
(§2) Total RNA was isolated from aortas using the RNA isolation Minikit (Qiagen) according to the manufacturer's instructions. […] Each gene amplicon was purified with the MiniElute PCR Purification Kit (Qiagen) and quantitated on an agarose gel by using a DNA mass ladder (Promega). […]
(§3) Complementary DNA (cDNA) concentrations for genes of interest were examined by real-time quantitative PCR using an iCycler IQ System and the iQ SYBR green supermix (Bio-Rad). […] Results are presented as a starting quantity of target cDNA (picograms) per microgram of total RNA. […]

[2] = system: monocyte chemoattractant protein 1 (MCP-1); assay: Aortic gene expression by real-time RT-PCR: MCP-1; assay type: in vivo, mice; conditions: P=0.10
Procedure: as §1, §2, §3

[3] = system: F4/80+CD11b+ macrophages and CD4+ T-cells; assay: Flow cytometry of immune cell infiltration into the aortic root; assay type: in vivo, mice; conditions: day 84, flow cytometry
Procedure: as §1
After euthanization, mouse hearts were perfused with PBS for 2 minutes. Aortas were then extracted. Aortic roots were cut into small […] pieces, and placed in 1× Hanks Balanced Sodium Salt Solution (HBSS) containing 0.2% type II collagenase (Worthington Biochemicals). After digestion at 37° C. for 1 hour, samples were sent through a […] nylon filter (BD), washed with HBSS, and centrifuged at 1200 rpm for 10 min. Cell suspensions were then resuspended in FACS buffer and enumerated by using a Z1 Single Particle Counter (Beckman Coulter). […]

[4] = system: human aorta endothelial cells (HAECs); assay: Intracellular cAMP in human aorta endothelial cells; assay type: cell-based; conditions: tested 0.01-10 μM
Procedure: (§4) FIG. 7 are graphs showing effect of ABA on (A) cAMP; (B) NO; and (C) eNOS. (A) Confluent human aortic endothelial cell (HAEC) were serum-starved using HBSS buffer for 30 min and then stimulated with various concentrations of ABA (0, 0.01, 0.1, 1, 10 μM) or Forskolin (1 μM) for […]. After removing supernatant, cells were lysated with 0.1 M HCL for 20 minutes to measure non-acetylated cAMP. (B) Confluent HAEC were serum-starved using HBSS buffer for 30 minutes and then stimulated with various concentrations of ABA (0, 0.001, 0.01, 0.1, 1, 10 μM) for 15 minutes to measure NO. Results (pmol/ml) from four independent experiments are depicted. […]
(§5) Confluent human aorta endothelial cells (HAECs) at passage 3 maintained with EGM-2 media (Clonetics, Walkerville, Md.) were adapted to Hank's buffered salt solution buffer for 30 min and then stimulated with ABA or forskolin (1 μM) for 10 min. For intracellular assessment of cAMP, the cells were harvested into 0.1 M HCL and the lysates were obtained by sonication and centrifugation. cAMP the lysates were determined by using an EIA kit (Assay Designs, Ann Arbor, Mich.) and results were obtained from four independent experiments. Nitric oxide levels in the cell culture supernatants were determined with the Nitric Oxide Assay Kit according to manufacturer's instructions (Assay Designs). […]

[5] = system: human aorta endothelial cells (HAECs); assay: Nitric oxide in HAEC culture supernatants; assay type: cell-based; conditions: 0.001-10 μM ABA
Procedure: as §4, §5

db/db mice = conditions: Guri et al., cited from earlier work

CC1=CC(=O)CC(C)(C)C1(O)/C=C/C(C)=C\C(=O)O (racemic) [ABA, abscisic acid]
VCAM-1 mRNA expression in the aortic roots vs control [1]: reduced, though not to statistical significance | MCP-1 mRNA expression in the aortic roots vs control [2]: reduced, though not to statistical significance | Recruitment of CD4+ T-cells in the aortic root vs control [3]: significantly reduces recruitment | Recruitment of F4/80+CD11b+ macrophages in the aortic root vs control [3]: significantly reduces recruitment | Dose inducing maximal effect on intracellular cAMP [4]: 1 µM | Lowest dose significantly increasing intracellular cAMP concentrations [4]: 0.1 µM | NO production [5]: enhanced NO production | Glucose tolerance (db/db mice; db/db mice, 2007 and 2008): improved glucose tolerance | Macrophage infiltration into white adipose tissue (db/db mice; obese db/db mice, 2008): significantly reduces macrophage infiltration | Reduction in MCP-1 expression in the adipose tissue stromal-vascular fraction (db/db mice; obese db/db mice, 2008): approximately 15 fold
